According to ChEMBL document CHEMBL6103585, “Construction and activity evaluation of novel CHS inhibitors against fungal infections” (Eur J Med Chem, 2025):
Values after ≈ are worked out from the molar mass of the structure shown. Active and inactive are the calls of the source. The calls are words filed in the database; no cut-off is given here.

Legend:
Cryptococcus neoformans = assay: Antifungal activity against Cryptococcus neoformans ZKCC 2209 assessed as fungal growth inhibition incubated for 72 hrs by broth microdilution method; format: functional
Nakaseomyces glabratus = assay: Antifungal activity against Candida glabrata assessed as fungal growth inhibition incubated for 72 hrs by broth microdilution method; format: functional
Candida albicans [1] = assay: Antifungal activity against fluconazole-resistant Candida albicans CaR assessed as reduction in fungal growth incubated for 72 hrs by broth microdilution method; format: functional
Candida albicans [2] = assay: Antifungal activity against fluconazole-resistant Candida albicans 17# assessed as reduction in fungal growth incubated for 72 hrs by broth microdilution method; format: functional
[3] = Inhibition of chitin synthase extracted from Candida tropicalis ATCC 1369 using UDP-GlcNAc as substrate incubated for 1 hrs
A549 = assay: Cytotoxicity against human A549 cells incubated for 24 hrs by CCK8 assay; format: functional, cell-based; details: A549, 24 h
HeLa = assay: Cytotoxicity against human HeLa cells incubated for 24 hrs by CCK8 assay; format: functional, cell-based
[4] = Binding affinity to chitin synthase (unknown origin) assessed as dissociation constant by SPR analysis
Candida albicans [5] = assay: Induction of ROS generation in Candida albicans ATCC SC5314 assessed as increase in fluorescence intensity incubated for 12 hrs by fluorescence microscopic analysis; format: functional, organism-based
Candida albicans [6] = assay: Induction of apoptosis in Candida albicans ATCC SC5314 assessed as viable cells by V-FITC/PI staining based flow cytometric analysis (reference value: 93.3%); format: functional
Candida albicans [7] = assay: Induction of apoptosis in Candida albicans ATCC SC5314 assessed as late apoptotic cells by V-FITC/PI staining based flow cytometric analysis (reference value: 0.40%); format: functional
Candida albicans [8] = assay: Induction of apoptosis in Candida albicans ATCC SC5314 assessed as necrotic cells by V-FITC/PI staining based flow cytometric analysis (reference value: 2.74%); format: functional
Candida albicans [9] = assay: Fungicidal activity against Candida albicans ATCC SC5314 assessed as live cells (reference value: 92%); format: functional
Candida albicans [10] = assay: Fungicidal activity against Candida albicans ATCC SC5314 assessed as dead cells (reference value: 8%); format: functional
Candida albicans [11] = assay: (§1) In vivo antifungal activity against Candida albicans 901 infected in mouse model assessed as body weight gain at 5 microg/g, iv pre-infected with fungi by intravenous injection followed by compound administration and measured on day 8 in presence of BPE; format: functional, organism-based; details: dose 5.0 µg/g, time 8.0 day
Candida albicans [12] = assay: In vivo antifungal activity against Candida albicans 901 infected in mouse model assessed as body weight gain at 5 microg/g, iv pre-infected with fungi by intravenous injection followed by compound administration and measured on day 8 in presence of 1-MT; format: functional, organism-based; details: dose 5.0 µg/g, time 8.0 day
Candida albicans [13] = assay: (§2) In vivo antifungal activity against Candida albicans 901 infected in mouse model assessed as expansion of alveolar spaces in lung at 5 microg/g, iv pre-infected with fungi by intravenous injection followed by compound administration and measured on day 8 by H and E staining based analysis; format: functional, organism-based; details: dose 5.0 µg/g, time 8.0 day
Candida albicans [14] = assay: (§3) In vivo antifungal activity against Candida albicans 901 infected in mouse model assessed as reduction in genetic material content in lung at 5 microg/g, iv pre-infected with fungi by intravenous injection followed by compound administration and measured on day 8 by H and E staining based analysis; format: functional, organism-based; details: dose 5.0 µg/g, time 8.0 day
Candida albicans [15] = assay: as §2, with “recovery” for “expansion”, “structures to normal state” for “spaces”, “8 in presence of BPE” for “8”; format: functional, organism-based; details: dose 5.0 µg/g, time 8.0 day
Candida albicans [16] = assay: as §3, with “8 in presence of BPE” for “8”; format: functional, organism-based; details: dose 5.0 µg/g, time 8.0 day
Candida albicans [17] = assay: as §2, with “recovery” for “expansion”, “structures to normal state” for “spaces”, “8 in presence of 1-MT” for “8”; format: functional, organism-based; details: dose 5.0 µg/g, time 8.0 day
Candida albicans [18] = assay: as §3, with “8 in presence of 1-MT” for “8”; format: functional, organism-based; details: dose 5.0 µg/g, time 8.0 day
Candida albicans [19] = assay: as §1, with “decrease in IFN-gamma protein expression level” for “body weight gain”, “BPE by Western blotting analysis” for “BPE”; format: functional, organism-based; details: dose 5.0 µg/g, time 8.0 day
Candida albicans [20] = assay: (§4) In vivo antifungal activity against Candida albicans 901 infected in mouse model assessed as decrease in PD-L1 protein expression level at 5 microg/g, iv pre-infected with fungi by intravenous injection followed by compound administration and measured on day 8 by Western blotting analysis; format: functional, organism-based; details: dose 5.0 µg/g, time 8.0 day
Candida albicans [21] = assay: as §4, with “8 in presence of BPE” for “8”; format: functional, organism-based; details: dose 5.0 µg/g, time 8.0 day
Candida albicans [22] = assay: as §4, with “8 in presence of 1-MT” for “8”; format: functional, organism-based; details: dose 5.0 µg/g, time 8.0 day
Candida albicans [23] = assay: (§5) In vivo antifungal activity against Candida albicans 901 infected in mouse model assessed as decrease in IDO protein expression level at 5 microg/g, iv pre-infected with fungi by intravenous injection followed by compound administration and measured on day 8 by Western blotting analysis; format: functional, organism-based; details: dose 5.0 µg/g, time 8.0 day
Candida albicans [24] = assay: as §5, with “8 in presence of BPE” for “8”; format: functional, organism-based; details: dose 5.0 µg/g, time 8.0 day
Candida albicans [25] = assay: as §5, with “8 in presence of 1-MT” for “8”; format: functional, organism-based; details: dose 5.0 µg/g, time 8.0 day
Candida albicans [26] = assay: In vivo antifungal activity against Candida albicans 901 infected in mouse model assessed as increase in CD4positive expression level in presence of 1-MT; format: functional, organism-based
[27] = Toxicity in mouse infected with Candida albicans 901 assessed as change in AST level (reference value: 76.1 +/-4.2 IU/L); details: in vivo
[28] = Toxicity in mouse infected with Candida albicans 901 assessed as change in AST level in presence of 1-MT (reference value: 76.1 +/-4.2 IU/L); details: in vivo
[29] = Toxicity in mouse infected with Candida albicans 901 assessed as change in ALT level (reference value: 42.8 +/-3.9 IU/L); details: in vivo
[30] = Toxicity in mouse infected with Candida albicans 901 assessed as change in ALT level in presence of 1-MT (reference value: 42.8 +/-3.9 IU/L); details: in vivo
[31] = Toxicity in mouse infected with Candida albicans 901 assessed as change in CRE level (reference value: 21.5 +/-1.7 umol/L); details: in vivo
[32] = Toxicity in mouse infected with Candida albicans 901 assessed as change in CRE level in presence of 1-MT (reference value: 21.5 +/-1.7 umol/L); details: in vivo
[33] = Toxicity in mouse infected with Candida albicans 901 assessed as change in BUN level (reference value: 11.4 +/-1.5 mmol/L); details: in vivo
[34] = Toxicity in mouse infected with Candida albicans 901 assessed as change in BUN level in presence of 1-MT (reference value: 11.4 +/-1.5 mmol/L); details: in vivo

O=C(CNC(=O)c1nc2ccc(Cl)cc2c(=O)[nH]1)NCC(=O)c1ccccc1
MIC50 (Cryptococcus neoformans): 1 µg/mL (≈ 2.51 µM) | MIC50 (Nakaseomyces glabratus): 2 µg/mL (≈ 5.01 µM) | MIC50 (Candida albicans [1]): 2 µg/mL (≈ 5.01 µM) | MIC50 (Candida albicans [2]): 4 µg/mL (≈ 10 µM) | IC50 [3]: 14.7 µM | IC50 (A549): > 50 µM | IC50 (HeLa): > 50 µM | Kd [4]: 0.00752 µM | Activity (Candida albicans [5]): Active | Activity (Candida albicans [6]): 57.1% | Activity (Candida albicans [7]): 12.1% | Activity (Candida albicans [8]): 15.9% | Activity (Candida albicans [9]): 3% | Activity (Candida albicans [10]): 97% | Activity (Candida albicans [11]): Active | Activity (Candida albicans [12]): Active | Activity (Candida albicans [13]): Active | Activity (Candida albicans [14]): Active | Activity (Candida albicans [15]): Active | Activity (Candida albicans [16]): Active | Activity (Candida albicans [17]): Active | Activity (Candida albicans [18]): Active | Activity (Candida albicans [19]): Active | Activity (Candida albicans [20]): Active | Activity (Candida albicans [21]): Active | Activity (Candida albicans [22]): Active | Activity (Candida albicans [23]): Active | Activity (Candida albicans [24]): Active | Activity (Candida albicans [25]): Active | Activity (Candida albicans [26]): Active | Activity [27]: 63.9 IU/L | Activity [28]: 74.6 IU/L | Activity [29]: 33.6 IU/L | Activity [30]: 40.2 IU/L | Activity [31]: 18.7 µmol/L | Activity [32]: 20.8 µmol/L | Activity [33]: 8.2 mmol/L | Activity [34]: 10.3 mmol/L
